Key:
cPLA2 = target: T1, cPLA2 (Homo sapiens, UniProt P47712); assay: Coumarin Assay (cPLA2 inhibition); type: biochemical; conditions: for inhibition at 50 µM: CONCENTRATION 50 micromolar; for inhibition at 4.8 µM: CONCENTRATION 4.8 micromolar; for inhibition at 10.5 µM: CONCENTRATION 10.5 micromolar
T1 sequence (P47712 1-749): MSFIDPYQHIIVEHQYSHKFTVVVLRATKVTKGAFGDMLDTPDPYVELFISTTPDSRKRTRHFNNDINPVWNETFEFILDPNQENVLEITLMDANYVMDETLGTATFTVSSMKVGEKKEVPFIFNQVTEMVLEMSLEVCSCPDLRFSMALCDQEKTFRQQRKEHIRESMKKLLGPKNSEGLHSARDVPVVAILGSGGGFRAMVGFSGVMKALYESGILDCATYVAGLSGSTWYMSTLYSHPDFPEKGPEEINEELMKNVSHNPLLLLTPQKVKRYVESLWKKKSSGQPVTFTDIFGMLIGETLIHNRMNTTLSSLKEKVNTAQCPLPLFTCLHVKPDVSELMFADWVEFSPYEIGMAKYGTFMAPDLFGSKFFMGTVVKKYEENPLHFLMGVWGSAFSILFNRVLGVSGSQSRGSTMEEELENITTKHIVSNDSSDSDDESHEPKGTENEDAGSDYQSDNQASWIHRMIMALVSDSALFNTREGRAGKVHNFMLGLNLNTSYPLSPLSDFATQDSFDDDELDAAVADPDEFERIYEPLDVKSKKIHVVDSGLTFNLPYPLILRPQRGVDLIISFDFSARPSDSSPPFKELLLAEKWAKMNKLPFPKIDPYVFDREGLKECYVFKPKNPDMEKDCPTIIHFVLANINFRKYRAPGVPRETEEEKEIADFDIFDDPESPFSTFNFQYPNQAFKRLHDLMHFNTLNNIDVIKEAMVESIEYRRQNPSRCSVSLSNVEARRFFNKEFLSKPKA
Procedure, shortened: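 Percent inhibition at the stated concentration, from the rate of 460 nm emission rise (360 nm excitation) per minute. Reaction started by adding 4 μg enzyme to compound and 60 μM 7-hydroxycoumarinyl 6-heptenoate in Hepes buffer pH 7.5 with 1 mM EDTA.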

[1] = test system: Rat Carrageenan-Induced Footpad Edema; assay: Rat Carrageenan-Induced Footpad Edema Test; type: in vivo, male Sprague Dawley rats; conditions: Rattus norvegicus, 3 h, footpad volume 3 hours after carrageenan, read-out: PERCENT INHIBITION; for inhibition in vivo at 5 mg/kg: iv, IV; for inhibition in vivo at 2 mg/kg / inhibition in vivo at 10 mg/kg / inhibition in vivo at 3 mg/kg: po, PO
[2] = CONCENTRATION 100 micromolar, read-out: PERCENT INHIBITION @

O=C(O)CCc1cn(C(c2ccccc2)c2ccccc2)c2ccc(NC(=O)C3CCCC3)cc12 [Example 84, 3-{1-benzhydryl-5-[(cyclopentylcarbonyl)amino]-1H-indol-3-yl}propanoic acid]
inhibition at 100 µM (cPLA2; [2]): 22%
inhibition at 265 µM (cPLA2; CONCENTRATION 265 micromolar, read-out: PERCENT INHIBITION @): 50%
inhibition at 350 µM (cPLA2; CONCENTRATION 350 micromolar, read-out: PERCENT INHIBITION @): 50%
inhibition in vivo at 5 mg/kg [1]: 6.15%

CS(=O)(=O)NC(=O)CCc1cn(C(c2ccccc2)c2ccccc2)c2ccc(NC(=O)C3CCCC3)cc12 [Example 85, N-(1-benzhydryl-3-{3-[(methylsulfonyl)amino]-3-oxopropyl}-1H-indol-5-yl)cyclopentanecarboxamide]
inhibition at 100 µM (cPLA2; [2]): 31%
inhibition at 200 µM (cPLA2; CONCENTRATION 200 micromolar, read-out: PERCENT INHIBITION @): 50%
inhibition in vivo at 5 mg/kg [1]: 7.13%

O=C(O)/C=C/c1cn(C(c2ccccc2)c2ccccc2)c2ccc(NC(=O)C3CCCC3)cc12 [Example 86A, (E)-3-{1-benzhydryl-5-[(cyclopentylcarbonyl)amino]-1H-indol-3-yl}-2-propenoic acid]
inhibition at 60 µM (cPLA2; CONCENTRATION 60 micromolar, read-out: PERCENT INHIBITION @): 50%
inhibition at 70 µM (cPLA2; CONCENTRATION 70 micromolar, read-out: PERCENT INHIBITION @): 50%
inhibition at 82 µM (cPLA2; CONCENTRATION 82 micromolar, read-out: PERCENT INHIBITION @): 50%
inhibition at 118 µM (cPLA2; CONCENTRATION 118 micromolar, read-out: PERCENT INHIBITION @): 50%
inhibition in vivo at 5 mg/kg [1]: 7.4%

O=C(O)/C=C/c1cn(C(c2ccccc2)c2ccccc2)c2ccc([N+](=O)[O-])cc12 [Example 87A, (E)-3-{1-benzhydryl-5-nitro-1H-indol-3-yl}-2-propenoic acid]
inhibition at 50 µM (cPLA2; read-out: PERCENT INHIBITION @): 33%
inhibition at 95 µM (cPLA2; CONCENTRATION 95 micromolar, read-out: PERCENT INHIBITION @): 50%
inhibition in vivo at 2 mg/kg [1]: 12.9%
inhibition in vivo at 10 mg/kg [1]: 25.4%

CS(=O)(=O)NC(=O)/C=C/c1cn(C(c2ccccc2)c2ccccc2)c2ccc([N+](=O)[O-])cc12 [Example 87B, N-((E)-3-{1-benzhydryl-5-nitro-1H-indol-3-yl}-2-propenoyl)methanesulfonamide]
inhibition at 38 µM (cPLA2; CONCENTRATION 38 micromolar, read-out: PERCENT INHIBITION @): 50%
inhibition at 42.5 µM (cPLA2; CONCENTRATION 42.5 micromolar, read-out: PERCENT INHIBITION @): 50%
inhibition in vivo at 3 mg/kg [1]: 17.9%
inhibition in vivo at 10 mg/kg [1]: 31.4%

COc1cc(C(=O)O)ccc1Cc1cn(C(c2ccccc2)c2ccccc2)c2ccc(NS(=O)(=O)c3ccc(C(F)(F)F)cc3)cc12 [Example 89, 4-{[1-benzhydryl-5-({[4-(trifluoromethyl)phenyl]sulfonyl}amino)-1H-indol-3-yl]methyl}-3-methoxybenzoic acid]
inhibition at 4.4 µM (cPLA2; CONCENTRATION 4.4 micromolar, read-out: PERCENT INHIBITION @): 50%
inhibition at 4.8 µM (cPLA2; read-out: PERCENT INHIBITION @): 50%
inhibition in vivo at 2 mg/kg [1]: 14.3%
inhibition in vivo at 10 mg/kg [1]: 16.4%

COc1cc(C(=O)O)ccc1Cc1cn(C(c2ccccc2)c2ccccc2)c2ccc(NS(=O)(=O)c3sc(NC(C)=O)nc3C)cc12 [Example 90, 4-{[5-({[2-(acetylamino)-4-methyl-1,3-thiazol-5-yl]sulfonyl}amino)-1-benzhydryl-1H-indol-3-yl]methyl}-3-methoxybenzoic acid]
inhibition at 10.2 µM (cPLA2; CONCENTRATION 10.2 micromolar, read-out: PERCENT INHIBITION @): 50%
inhibition at 10.5 µM (cPLA2; read-out: PERCENT INHIBITION @): 50%
inhibition in vivo at 2 mg/kg [1]: -0.18%
inhibition in vivo at 10 mg/kg [1]: 2.7%

COc1cc(C(=O)O)ccc1Cc1cn(C(c2ccccc2)c2ccccc2)c2ccc(NS(=O)(=O)c3ccc(Cl)c([N+](=O)[O-])c3)cc12 [Example 91, 4-[(1-benzhydryl-5-{[(4-chloro-3-nitrophenyl)sulfonyl]amino}-1H-indol-3-yl)methyl]-3-methoxybenzoic acid]
inhibition at 3.8 µM (cPLA2; CONCENTRATION 3.8 micromolar, read-out: PERCENT INHIBITION @): 50%
inhibition at 4.25 µM (cPLA2; CONCENTRATION 4.25 micromolar, read-out: PERCENT INHIBITION @): 50%
inhibition in vivo at 2 mg/kg [1]: 13.5%
inhibition in vivo at 10 mg/kg [1]: 14.7%

COc1cc(C(=O)O)ccc1Cc1cn(C(c2ccccc2)c2ccccc2)c2ccc(NS(=O)(=O)c3ccc(OC(F)(F)F)cc3)cc12 [Example 93, 4-{[1-benzhydryl-5-({[4-(trifluoromethoxy)phenyl]sulfonyl}amino)-1H-indol-3-yl]methyl}-3-methoxybenzoic acid]
inhibition at 4.2 µM (cPLA2; CONCENTRATION 4.2 micromolar, read-out: PERCENT INHIBITION @): 50%
inhibition at 4.9 µM (cPLA2; CONCENTRATION 4.9 micromolar, read-out: PERCENT INHIBITION @): 50%
inhibition in vivo at 2 mg/kg [1]: -3.02%
inhibition in vivo at 10 mg/kg [1]: 9.91%

COc1cc(C(=O)O)ccc1Cc1cn(C(c2ccccc2)c2ccccc2)c2ccc(NS(=O)(=O)c3ccccc3C)cc12 [Example 94, 4-[(1-benzhydryl-5-{[(2-methylphenyl)sulfonyl]amino}-1H-indol-3-yl)methyl]-3-methoxybenzoic acid]
inhibition at 7 µM (cPLA2; CONCENTRATION 7 micromolar, read-out: PERCENT INHIBITION @): 50%
inhibition at 7.5 µM (cPLA2; CONCENTRATION 7.5 micromolar, read-out: PERCENT INHIBITION @): 50%
inhibition in vivo at 2 mg/kg [1]: 19%
inhibition in vivo at 3 mg/kg [1]: 3.13%

COc1cc(C(=O)O)ccc1Cc1cn(C(c2ccccc2)c2ccccc2)c2ccc(NS(=O)(=O)c3c(C)nn(C)c3Cl)cc12 [Example 95, 4-[(1-benzhydryl-5-{[(5-chloro-1,3-dimethyl-1H-pyrazol-4-yl)sulfonyl]amino}-1H-indol-3-yl)methyl]-3-methoxybenzoic acid]
inhibition at 11.5 µM (cPLA2; CONCENTRATION 11.5 micromolar, read-out: PERCENT INHIBITION @): 50%
inhibition at 13 µM (cPLA2; CONCENTRATION 13 micromolar, read-out: PERCENT INHIBITION @): 50%
inhibition in vivo at 2 mg/kg [1]: 14.9%
inhibition in vivo at 10 mg/kg [1]: 23.2%

COc1cc(C(=O)O)ccc1Cc1cn(C(c2ccccc2)c2ccccc2)c2ccc(NS(=O)(=O)c3c(C)noc3C)cc12 [Example 96, 4-[(1-benzhydryl-5-{[(3,5-dimethyl-4-isoxazolyl)sulfonyl]amino}-1H-indol-3-yl)methyl]-3-methoxybenzoic acid]
inhibition at 8 µM (cPLA2; CONCENTRATION 8 micromolar, read-out: PERCENT INHIBITION @): 50%
inhibition at 10.5 µM (cPLA2; read-out: PERCENT INHIBITION @): 50%
inhibition in vivo at 2 mg/kg [1]: 29.4%
inhibition in vivo at 10 mg/kg [1]: 22%

COc1cc(C(N)=O)ccc1Cc1cn(C(c2ccccc2)c2ccccc2)c2ccc(NC(=O)OC3CCCC3)cc12 [Example 97, Cyclopentyl-N-{3-[4-(aminocarbonyl)-2-methoxybenzyl]-1-benzhydryl-1H-indol-5-yl}carbamate]
inhibition at 50 µM (cPLA2; read-out: PERCENT INHIBITION @): 50%
inhibition at 80 µM (cPLA2; CONCENTRATION 80 micromolar, read-out: PERCENT INHIBITION @): 50%
inhibition at 94 µM (cPLA2; CONCENTRATION 94 micromolar, read-out: PERCENT INHIBITION @): 50%
inhibition in vivo at 5 mg/kg [1]: 21.3%

COc1cc(-c2nnn[nH]2)ccc1Cc1cn(C(c2ccccc2)c2ccccc2)c2ccc(NC(=O)OC3CCCC3)cc12 [Example 98, cyclopentyl N-{1-benzhydryl-3-[2-methoxy-4-(1H-1,2,3,4-tetraazol-5-yl)benzyl]-1H-indol-5-yl}carbamate]
inhibition at 4.8 µM (cPLA2; read-out: PERCENT INHIBITION @): 50%
inhibition at 6.25 µM (cPLA2; CONCENTRATION 6.25 micromolar, read-out: PERCENT INHIBITION @): 66%
inhibition at 8.7 µM (cPLA2; CONCENTRATION 8.7 micromolar, read-out: PERCENT INHIBITION @): 50%
inhibition in vivo at 5 mg/kg [1]: 18.4%

O=C(O)c1cscc1NC(=O)c1cn(C(c2ccccc2)c2ccccc2)c2ccc(NC(=O)C3CCCC3)cc12 [Example 99, 4-[({1-benzhydryl-5-[(cyclopentylcarbonyl)amino]-1H-indol-3-yl}carbonyl)amino]-3-thiophenecarboxylic acid]
inhibition at 30 µM (cPLA2; CONCENTRATION 30 micromolar, read-out: PERCENT INHIBITION @): 13%
PERCENT INHIBITION @ (cPLA2; CONCENTRATION 100 micromolar): 50%
inhibition at 100 µM (cPLA2; [2]): 38%
inhibition in vivo at 2 mg/kg [1]: 24.5%
inhibition in vivo at 10 mg/kg [1]: 22.8%

— patent US6500853B1, “Inhibitors of phospholipase enzymes” (Genetics Institute, LLC, priority 1998, dated 2002)
